Like-named read-outs stand apart in the source and are kept apart here.
Target: MIF (Homo sapiens (Human), UniProt P14174)
Experiment: HPP tautomerase assay (inhibition of the tautomerase activity of MIF)
Type: biochemical
Details: for lowering of the Ki relative to 8n: HPP tautomerase assay
Procedure: Inhibition of the tautomerase activity of MIF was measured using the substrate 4-hydroxyphenyl pyruvic acid (HPP) in a procedure largely adapted from previous reports. A solution of HPP (10 mM) in acetate buffer (0.5 M ammonium acetate, pH adjusted to 6.0) was prepared and allowed to incubate overnight in the dark at room temperature to allow for equilibration of the keto and enol forms. Following the incubation period, the HPP solution was stored at 4° C. and used for no more than a week. […] A negative control (containing water and DMSO in lieu of protein and inhibitor, respectively) and a positive control (containing DMSO in lieu of inhibitor) were also prepared. The reaction began upon the addition of HPP solution (final concentration: 1.0 mM and 2.5 mM). […] Absorbance was measured three times for each [inhibitor]-[HPP] combination. […] Reported Ki values represent the average value obtained from two assays performed on different days. (R)-ISO-1 (purchased from Santa Cruz Biotechnology) was used as a control.
Recombinant human MIF was expressed and purified according to published protocols. Briefly, for the purification of MIF, E. coli cell pellets were suspended in lysis buffer (20 mM Tris, pH 7.5; 20 mM sodium chloride; 10% glycerol; 2 mM magnesium chloride; 1 cOmplete mini protease inhibitor cocktail tablet per 250 mL of buffer). The solution was sonicated and centrifuged at 27,000G for 30 mins. The supernatant was filtered through a 0.22 μm syringe filter and loaded on a GE Healthcare Hi-Trap SP HP column in sequence with a GE Healthcare Hi-Trap Q SP column equilibrated with a buffer composed of 20 mM NaCl and 20 mM Tris, pH 7.5. […] To achieve highest purity, the flow-through was further purified with a GE Healthcare Superdex 200 column. The purified protein was concentrated with a 10 kDa centrifugal filter unit to 30 mg/mL, flash-frozen in liquid nitrogen, and stored at −80° C.
As in prior studies, the inhibition constants Ki were determined using HPP as the substrate. […] In addition, the aqueous solubilities of several compounds were measured with a shake-flask procedure.

[1] = HPP as substrate, MIF tautomerase, read-out: Experimental inhibition constants, Ki

Chain of MIF (P14174 2-115): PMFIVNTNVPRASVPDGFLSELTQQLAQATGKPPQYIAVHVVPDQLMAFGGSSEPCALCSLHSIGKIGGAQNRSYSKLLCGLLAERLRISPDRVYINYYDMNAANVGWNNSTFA

SMILES	Ki [1]	Ki	lowering of the Ki relative to 8n
O=C(O)c1cc(-c2cn[nH]c2)ccc1-c1ccccc1 [Compound 6a, 4-(1H-pyrazol-4-yl)-[1,1′-biphenyl]-2-carboxylic acid]	20.6 µM	–	–
O=C(O)c1cc(-c2cn[nH]c2)ccc1-c1cccc2ccccc12 [Compound 6b, 2-(Naphthalen-1-yl)-5-(1H-pyrazol-4-yl)benzoic acid]	19.5 µM	–	–
O=C(O)c1cc(-c2cn[nH]c2)ccc1-c1ccc2ccccc2c1 [Compound 6c, 2-(Naphthalen-2-yl)-5-(1H-pyrazol-4-yl)benzoic acid]	5.4 µM	5 µM	–
O=C(O)c1cc(-c2cn[nH]c2)ccc1Nc1ccccc1 [Compound 7a, 2-(Phenylamino)-5-(1H-pyrazol-4-yl)benzoic acid]	12.7 µM	–	–
CN(c1ccc2ccccc2c1)c1ccc(-c2cn[nH]c2)cc1C(=O)O [Compound 7b, 2-(Methyl(naphthalen-2-yl)amino)-5-(1H-pyrazol-4-yl)benzoic acid]	4.2 µM	–	–
O=C(O)c1cc(-c2cn[nH]c2)ccc1Oc1ccccc1 [Compound 8a, 2-Phenoxy-5-(1H-pyrazol-4-yl)benzoic acid]	6.8 µM	–	–
Cc1ccccc1Oc1ccc(-c2cn[nH]c2)cc1C(=O)O [Compound 8b, 5-(1H-Pyrazol-4-yl)-2-(o-tolyloxy)benzoic acid]	4.3 µM	–	–
Cc1cccc(Oc2ccc(-c3cn[nH]c3)cc2C(=O)O)c1 [Compound 8c, 5-(1H-Pyrazol-4-yl)-2-(m-tolyloxy)benzoic acid]	3.8 µM	–	–
Cc1ccc(Oc2ccc(-c3cn[nH]c3)cc2C(=O)O)cc1 [Compound 8d, 5-(1H-Pyrazol-4-yl)-2-(p-tolyloxy)benzoic acid]	7 µM	–	–
O=C(O)c1cc(-c2cn[nH]c2)ccc1Oc1cccc(F)c1 [Compound 8e, 2-(3-Fluorophenoxy)-5-(1H-pyrazol-4-yl)benzoic acid]	1.7 µM	–	–
O=C(O)c1cc(-c2cn[nH]c2)ccc1Oc1ccc(F)cc1 [Compound 8f, 2-(4-Fluorophenoxy)-5-(1H-pyrazol-4-yl)benzoic acid]	4.6 µM	–	–
CS(=O)(=O)c1cc(-c2cn[nH]c2)ccc1Oc1ccc2ccccc2c1 [Compound 8h, 4-(3-(Methylsulfonyl)-4-(naphthalen-2-yloxy)phenyl)-1H-pyrazole]	6.4 µM	–	–
O=C(O)c1cc(-c2cn[nH]c2)ccc1Oc1cc2ccccc2c2ccccc12 [Compound 8j, 2-(Phenanthren-9-yloxy)-5-(1H-pyrazol-4-yl)benzoic acid]	2.3 µM	–	–
O=C(O)c1cc(-c2cn[nH]c2)ccc1OC1C2CC3CC(C2)CC1C3 (stereo not drawn) [Compound 8k, 2-((Adamantan-2-yl)oxy)-5-(1H-pyrazol-4-yl)benzoic acid]	2.6 µM	–	–
O=C(O)c1cc(-c2cn[nH]c2)ccc1Oc1cc2c3c(cccc3c1)CC2 [Compound 8l, 2-((1,2-Dihydroacenaphthylen-4-yl)oxy)-5-(1H-pyrazol-4-yl)benzoic acid]	1.1 µM	–	–
O=C(O)c1cc(-c2c[nH]nc2F)ccc1Oc1cccc2ccccc12 [Compound 8m, 5-(3-Fluoro-1H-pyrazol-4-yl)-2-(naphthalen-1-yloxy)benzoic acid]	0.48 µM	–	–
CCc1cc(Oc2ccc(-c3c[nH]nc3F)cc2C(=O)O)cc2ccccc12 [Compound 8o, 2-((4-Ethylnaphthalen-2-yl)oxy)-5-(3-fluoro-1H-pyrazol-4-yl)benzoic acid]	0.15 µM	–	3 fold
CCc1cccc2cc(Oc3ccc(-c4c[nH]nc4F)cc3C(=O)O)ccc12 [Compound 8p, 2-((5-Ethylnaphthalen-2-yl)oxy)-5-(3-fluoro-1H-pyrazol-4-yl)benzoic acid]	0.17 µM	–	3 fold
CCc1ccc2ccc(Oc3ccc(-c4c[nH]nc4F)cc3C(=O)O)cc2c1 [Compound 8q, 2-((7-Ethylnaphthalen-2-yl)oxy)-5-(3-fluoro-1H-pyrazol-4-yl)benzoic acid]	0.14 µM	–	3 fold
O=C(O)c1cc(-c2c[nH]nc2F)ccc1Oc1cc(C2CC2)c2ccccc2c1 [Compound 8r, 2-((4-Cyclopropylnaphthalen-2-yl)oxy)-5-(3-fluoro-1H-pyrazol-4-yl)benzoic acid]	0.11 µM	–	–

Source: patent US11999723B2, “Pyrazole-containing macrophage migration inhibitory factor inhibitors” (priority 2018, dated 2024)
